Where two headings read alike, the source gives them in different places.

32 compounds from US7589220B2, “Inhibitors of the anandamide transporter” (priority 1998, dated 2009) can be followed below.

Assay [1] deals with anandamide transporter. Briefly: substrate translocation of radioactively labeled analogs (FIGS. 1 and 2). The assay is classed as cell-based. On the set-up: dose or concentration left out as unconfirmed. The note with it: radioactively labeled compounds.
Assay [2] relates to anandamide transporter. The assay can be described thus: [3H]anandamide competition assay using a high throughput method. The class given is cell-based, human.
Assay [3] deals with anandamide transporter. Briefly: [3H]anandamide accumulation in cortical astrocytes in culture. The assay is classed as cell-based, rat. Conditions: for effect on [3H]anandamide accumulation: cortical astrocytes; for prevention of the temperature-sensitive component of [3H]anandamide accumulation: cortical astrocytes in culture.
Another assay relates to PGE2 carrier. Briefly: [3H]PGE2 accumulation in neurons or astrocytes. The class given is cell-based. The source says:
The bromcresol green, which blocks PGE2 transport, raised the question of whether anandamide accumulation occurred by means of a PGE2 carrier. That this is not the case was shown by the lack of [^3H]PGE2 accumulation in neurons or astrocytes and by the inability of PGE2 to interfere with [^3H]anandamide accumulation.

Assay [4] deals with anandamide transporter. Briefly: [3H]anandamide accumulation in neurons. The assay is classed as cell-based, rat.
Another assay concerns the target T1, rat cerebral membranes (Rattus norvegicus, UniProt P20272).
T1 construct: from tissue; host or cells: rat cerebral membranes
The assay can be described thus: binding of [3H]WIN-55212-2 to rat cerebral membranes.

Assay [5] concerns astrocytes. The assay can be described thus: uptake of [3H]arachidonate in astrocytes. The assay is classed as cell-based.
Assay [6] has as its system astrocytes. The assay can be described thus: uptake of [3H]ethanolamine in astrocytes. The assay is classed as cell-based.
Setting [7] is: Table I, affinity for ligand recognition by the anandamide transporter.
The mark [8] stands for this setting: read-out: IC50 (AT inhib.) μM), Table II, anandamide transporter inhibition.
Where [9] appears, read: Table II, anandamide transporter inhibition, read-out: IC50 (AT inhib.) μM).
Setting [10] is: astrocytes, single high-affinity component.

T1 sequence (P20272 whole entry): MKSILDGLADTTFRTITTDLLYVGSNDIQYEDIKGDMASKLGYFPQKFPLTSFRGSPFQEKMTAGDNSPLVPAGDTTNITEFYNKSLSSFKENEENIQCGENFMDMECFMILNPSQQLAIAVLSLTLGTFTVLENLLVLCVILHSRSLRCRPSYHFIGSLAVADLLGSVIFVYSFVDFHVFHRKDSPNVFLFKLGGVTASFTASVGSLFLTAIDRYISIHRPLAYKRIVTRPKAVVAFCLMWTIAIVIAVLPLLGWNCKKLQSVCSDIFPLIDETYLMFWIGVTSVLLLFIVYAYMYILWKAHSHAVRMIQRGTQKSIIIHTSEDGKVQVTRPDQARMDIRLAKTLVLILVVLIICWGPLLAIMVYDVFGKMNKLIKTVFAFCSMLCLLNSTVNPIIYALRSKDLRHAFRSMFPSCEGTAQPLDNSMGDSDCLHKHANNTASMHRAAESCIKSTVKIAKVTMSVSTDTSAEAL

For `CCCCC/C=C\C/C=C\C/C=C\C/C=C\CCCC(=O)Nc1ccc(O)cc1` [AM404, N-(4-hydroxyphenyl)arachidonamide, reference compound], in the assay on anandamide transporter [1], the “transport (translocation) compared with [3H]anandamide” value was “transported as rapidly and effectively as”.

As a reminder, the IC50 is the midpoint of a concentration-inhibition curve. Regarding `CCCCC/C=C\C/C=C\C/C=C\C/C=C\CCCNC(=O)c1ccc(O)cc1` [AM1172], the IC50 in the assay with anandamide transporter [2] (setting [7]) is 2 µM. Further, the “transport (translocation) compared with [3H]anandamide” value with anandamide transporter [1] was “transported as rapidly and effectively as”.

For `CCCCC/C=C\C/C=C\C/C=C\C/C=C\CCCCNC(=O)C(C)C` [AM1177], the IC50 in the assay on anandamide transporter [2] (setting [7]) was found to be 5 µM. Further, the “transport (translocation) compared with [3H]anandamide” value in the assay on anandamide transporter [1] was “transported as rapidly and effectively as”.

As for `CCCCC/C=C\C/C=C\C/C=C\C/C=C\CCCC(=O)OC1COC(c2ccccc2)OC1` (centres unmarked) [AM1191], the IC50 in the assay on anandamide transporter [2] (setting [7]) turned out to be 0.8 µM. In addition, the “transport (translocation) compared with [3H]anandamide” value in the assay with anandamide transporter [1] is “transported as rapidly and effectively as”.

On to `CCCCCC=CCC=CCC=CCC=CCCCCOC(=O)NC(C)CO` (centres unmarked) [Compound 1], for which the concentration for half-maximal inhibition (IC50) in the assay on anandamide transporter [2] (setting [8]) came out at 7.1 µM.

In the case of `CCCCCC=CCC=CCC=CCC=CCCCCOC(=O)NC(C)CO` (centres unmarked) [Compound 2], in the assay on anandamide transporter [2] (setting [8]), the IC50 came to 6.4 µM.

Take `CCCCCC=CCC=CCC=CCC=CCCCCOC(=O)NCC(C)O` (centres unmarked) [Compound 3]: the half-inhibitory concentration (IC50) with anandamide transporter [2] (setting [8]) turned out to be 1.5 µM.

Regarding `CCCCCC=CCC=CCC=CCC=CCCCCOC(=O)NCC(C)O` (centres unmarked) [Compound 4], in the assay on anandamide transporter [2] (setting [8]), the IC50 amounted to 0.4 µM.

Take `CCCCCC=CCC=CCC=CCC=CCCCCOC(=O)NC(C)C` [Compound 5]: in the assay with anandamide transporter [2] (setting [8]), the IC50 is 21.9 µM.

Turning to `CCCCCC=CCC=CCC=CCC=CCCCCOC(=O)NC1CC1` [Compound 6], the IC50 in the assay with anandamide transporter [2] (setting [8]) was 15.5 µM.

`CCCCCC=CCC=CCC=CCC=CCCCCOC(=O)NC1CCC1` [Compound 7]: the IC50 in the assay with anandamide transporter [2] (setting [8]) is 15.5 µM.

As for `CCCCCC=CCC=CCC=CCC=CCCCCOC(=O)NC1CCCCC1` [Compound 8], the IC50 in the assay on anandamide transporter [2] (setting [8]) was 33 µM.

On to `CCCCCC=CCC=CCC=CCC=CCCCCOC(=O)Nc1ccc(O)cc1` [Compound 9], for which, in the assay with anandamide transporter [2] (setting [8]), the IC50 was found to be 6.6 µM.

As to `CCCCCC=CCC=CCC=CCC=CCCCCOC(=O)NC1=NCCS1` [Compound 10], in the assay with anandamide transporter [2] (setting [9]), the IC50 amounted to 8.6 µM.

As to `CCCCCC=CCC=CCC=CCC=CCCCCOC(=O)Nc1cccnc1` [Compound 11], the IC50 in the assay on anandamide transporter [2] (setting [8]) stood at 16.1 µM.

Regarding `CCCCCC=CCC=CCC=CCC=CCCCCNC(=O)NCC(C)O` (centres unmarked) [Compound 12], the concentration for half-maximal inhibition (IC50) with anandamide transporter [2] (setting [8]) is 1.78 µM.

For `CCCCCC=CCC=CCC=CCC=CCCCCNC(=O)OCC(C)O` (centres unmarked) [Compound 16], in the assay on anandamide transporter [2] (setting [8]), the IC50 stood at 3.29 µM.

As to `CCCCC/C=C\C/C=C\C/C=C\C/C=C\CCCC(=O)Nc1nccs1` [Compound 17], in the assay with anandamide transporter [2] (setting [9]), the IC50 was found to be 1.7 µM.

For the compound `CCCCC/C=C\C/C=C\C/C=C\C/C=C\CCCC(=O)NC1=NCCS1` [Compound 18], the IC50 in the assay with anandamide transporter [2] (setting [9]) stood at 2.8 µM.

`CCCCC/C=C\C/C=C\C/C=C\C/C=C\CCCC(=O)Nc1nncs1` [Compound 19]: the IC50 in the assay on anandamide transporter [2] (setting [9]) stood at 1.5 µM.

On to `CCCCC/C=C\C/C=C\C/C=C\C/C=C\CCCC(=O)Nc1nc2ccccc2s1` [Compound 20], for which, in the assay on anandamide transporter [2] (setting [9]), the IC50 was 44.2 µM.

On to `CCCCC/C=C\C/C=C\C/C=C\C/C=C\CCCC(=O)Nc1nc(Br)cs1` [Compound 21], for which the IC50 in the assay with anandamide transporter [2] (setting [9]) was found to be 92.3 µM.

In the case of `CCCCC/C=C\C/C=C\C/C=C\C/C=C\CCCC(=O)Nc1ncc([N+](=O)[O-])s1` [Compound 22], the IC50 in the assay with anandamide transporter [2] (setting [9]) came out at 14.1 µM.

For the compound `CCCCC/C=C\C/C=C\C/C=C\C/C=C\CCCC(=O)Nc1nc(C)cs1` [Compound 23], in the assay with anandamide transporter [2] (setting [9]), the IC50 turned out to be 11.2 µM.

Take `CCCCC/C=C\C/C=C\C/C=C\C/C=C\CCCC(=O)Nc1nc(C)c(C)s1` [Compound 24]: the IC50 with anandamide transporter [2] (setting [9]) stood at 26 µM.

In the case of `CCCCC/C=C\C/C=C\C/C=C\C/C=C\CCCC(=O)Nc1nc(C(C)(C)C)cs1` [Compound 25], the IC50 with anandamide transporter [2] (setting [9]) was 24.1 µM.

Consider `CCCCC[C@H](O)/C=C/[C@H]1[C@H](O)CC(=O)[C@@H]1C/C=C\CCCC(=O)O` [PGE2, prostaglandin E2], for which, in the assay with anandamide transporter [3], the “interference with [3H]anandamide accumulation” value is on record as “inability”. Further, the “accumulation of [3H]PGE2” value in the assay on PGE2 carrier is given as “lack”.

Take `Cc1c(C(=O)NN2CCCCC2)nn(-c2ccc(Cl)cc2Cl)c1-c1ccc(Cl)cc1.Cl` [SR-141716-A]: the “displacement of the higher affinity component of [3H]anandamide accumulation” value with anandamide transporter [4] (neurons, 100 nM) is listed as “displaced”. In addition, the “effect on [3H]anandamide accumulation” value in the assay with anandamide transporter [3] (10 μM) is recorded as “no effect”.

On to `Cc1c(C(=O)c2cccc3ccccc23)c2cccc3c2n1[C@H](CN1CCOCC1)CO3` [WIN-55212-2], for which the “effect on [3H]anandamide accumulation” value in the assay with anandamide transporter [3] (1 μM) is listed as “no effect”.

By Km is commonly meant the substrate concentration at which the rate is half of its maximum. As for `CCCCC/C=C\C/C=C\C/C=C\C/C=C\CCCC(=O)NCCO` [anandamide, Arachidonyl ethanolamide], in the assay with anandamide transporter [4] (neurons and astrocytes), the “time to reach 50% of maximum accumulation” value was “about four”. Further, the Vmax in the assay with anandamide transporter [4] (neurons, higher affinity component) is on record as 5.9 pmol/min per milligram of protein; with anandamide transporter [3] (setting [10]), 171 pmol/min per milligram of protein. For the same compound, the Km amounted to 0.032 µM in the assay with anandamide transporter [4] (neurons, higher affinity component, read-out: Km); 1.2 µM in the assay on anandamide transporter [4] (neurons, lower affinity component, read-out: Michaelis constant, Km); 0.32 µM with anandamide transporter [3] (setting [10]). In the assay with anandamide transporter [4] (neurons, lower affinity component), the “maximum accumulation rate, Vmax” value was 90.9 pmol/min per milligram of protein. Further, the “prevention of the temperature-sensitive component of [3H]anandamide accumulation” value in the assay on anandamide transporter [3] is on record as “prevented”.

Take `Cc1c(C2(c3cc(Br)c(O)c(Br)c3C)OS(=O)(=O)c3ccccc32)cc(Br)c(O)c1Br` [bromcresol green]: in the assay with anandamide transporter [4] (neurons and astrocytes), the “mode of inhibition of [3H]anandamide accumulation” value is on record as “noncompetitively”. Moreover, at rat cerebral membranes, the “effect on the binding of [3H]WIN-55212-2” value is recorded as “no significant effect”. Besides, the “effect on uptake of [3H]arachidonate” value in the assay with astrocytes [5] is on record as “no significant effect”. Besides, the “effect on uptake of [3H]ethanolamine” value in the assay on astrocytes [6] is “no significant effect”.

Take `CCCCCCCCCCCCCCCC(=O)NCCO` [palmitoyl ethanolamide]: the “prevention of the temperature-sensitive component of [3H]anandamide accumulation” value with anandamide transporter [3] is on record as “not”.
